{
  "source": "patent US20090325862A1",
  "about": "“Histone Deacetylase Inhibitors for the Treatment of Neurodegeneration” (priority 2006, published 2009)",
  "key": {"[1]": {"tested_on": "acetylated histones in the brain", "conditions": "see WO2003083067; cited from earlier work"}, "[2]": {"target": "T1, recombinant human HDAC1 enzyme (Homo sapiens, UniProt Q13547)", "T1 construct": "made in house; host or cells: mammalian cells", "T1 sequence (Q13547 whole entry)": "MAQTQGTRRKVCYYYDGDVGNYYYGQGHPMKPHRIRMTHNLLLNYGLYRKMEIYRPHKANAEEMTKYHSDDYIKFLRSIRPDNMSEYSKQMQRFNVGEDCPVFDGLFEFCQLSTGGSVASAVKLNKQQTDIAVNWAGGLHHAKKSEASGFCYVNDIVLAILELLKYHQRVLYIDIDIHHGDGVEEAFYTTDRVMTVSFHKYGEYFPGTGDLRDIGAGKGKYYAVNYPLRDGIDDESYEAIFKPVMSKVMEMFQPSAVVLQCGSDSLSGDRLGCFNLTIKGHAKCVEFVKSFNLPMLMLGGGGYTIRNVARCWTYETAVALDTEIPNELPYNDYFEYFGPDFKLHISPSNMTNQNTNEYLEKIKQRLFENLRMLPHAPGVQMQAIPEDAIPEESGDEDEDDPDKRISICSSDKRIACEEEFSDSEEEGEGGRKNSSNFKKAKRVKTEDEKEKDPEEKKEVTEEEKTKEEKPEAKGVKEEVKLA", "experiment": "HDAC1 assay (Fluor-de-Lys fluorescence)", "assay_type": "biochemical", "conditions": "HDAC Class I; read-out: IC50 Inhibition, HDAC1", "description": "(§1) The final concentration in the assay is 20 μM.\nThe HDAC1 enzyme is diluted in assay buffer prior to each use from a fresh aliquot of enzyme.\n(§2) The final concentration in the assay is 1-2 nM."}, "[3]": {"target": "T2, recombinant human HDAC3 enzyme (HDAC3(DAD) enzyme complex) (Homo sapiens, UniProt O15379)", "T2 construct": "made in house; host or cells: mammalian cells", "T2 sequence (O15379 whole entry)": "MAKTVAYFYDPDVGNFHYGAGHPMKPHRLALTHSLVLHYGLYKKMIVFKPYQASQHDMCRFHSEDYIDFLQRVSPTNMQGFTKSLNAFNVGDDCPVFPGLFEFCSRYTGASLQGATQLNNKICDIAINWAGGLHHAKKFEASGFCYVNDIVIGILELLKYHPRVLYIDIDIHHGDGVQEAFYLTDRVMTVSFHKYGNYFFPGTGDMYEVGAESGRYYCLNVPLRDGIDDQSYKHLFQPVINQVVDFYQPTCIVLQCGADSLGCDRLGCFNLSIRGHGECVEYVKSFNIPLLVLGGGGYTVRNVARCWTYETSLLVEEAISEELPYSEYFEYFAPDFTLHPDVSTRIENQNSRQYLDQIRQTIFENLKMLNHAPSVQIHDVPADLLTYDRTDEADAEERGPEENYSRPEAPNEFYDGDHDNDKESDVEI", "T2 sequence (Q9Y618 389-480 partner limits assumed)": "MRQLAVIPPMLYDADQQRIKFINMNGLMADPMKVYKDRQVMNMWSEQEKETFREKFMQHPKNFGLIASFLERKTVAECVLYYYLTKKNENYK", "experiment": "HDAC3 assay (Fluor-de-Lys fluorescence)", "assay_type": "biochemical", "conditions": "HDAC Class I; read-out: IC50 Inhibition, HDAC3", "description": "as §1, §2"}, "[4]": {"target": "T3, human HDAC8 enzyme (Homo sapiens, UniProt Q9BY41)", "T3 construct": "full length (starting from amino acid 1 to 377+ linker IEGRGS+6 His); made in house; host or cells: E. coli BL21 codon plus", "T3 sequence (Q9BY41 1-377)": "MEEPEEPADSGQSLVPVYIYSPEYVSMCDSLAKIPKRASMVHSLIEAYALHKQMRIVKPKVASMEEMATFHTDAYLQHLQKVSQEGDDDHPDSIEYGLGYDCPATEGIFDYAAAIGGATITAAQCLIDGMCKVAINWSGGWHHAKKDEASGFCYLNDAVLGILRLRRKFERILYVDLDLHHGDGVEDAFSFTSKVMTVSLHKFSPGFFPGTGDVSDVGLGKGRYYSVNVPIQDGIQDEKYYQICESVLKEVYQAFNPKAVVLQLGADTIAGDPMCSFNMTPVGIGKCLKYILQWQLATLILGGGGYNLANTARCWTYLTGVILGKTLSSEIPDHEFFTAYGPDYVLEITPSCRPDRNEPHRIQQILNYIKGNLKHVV", "experiment": "HDAC8 assay (Fluor-de-Lys-HDAC8 fluorescence)", "assay_type": "biochemical", "quoted_text": "The HDAC8 assay is used to measure inhibitory activity of compounds against the human HDAC8 enzyme. The assay may be performed in 96 well or 384 well microtiter plates by pre-incubating serial dilutions of compounds with a fixed concentration of HDAC8 enzyme and then adding a diacetylated peptide-containing substrate/developer that fluoresces upon deacetylation. The deacetylase reaction is performed at 37° C. for 60 min and stopped by addition of the developer solution.\nReagents of the HDAC Fluorescent Activity Assay are purchased from BioMol Research Laboratories (Plymouth Meeting, Pa.), and include the Fluor-de-Lys™-HDAC8 Substrate/DeveloperII System. The reagents include the fluorescent substrate as a 5 mM stock solution, the and the DeveloperII Concentrate.\nTSA is provided as a 10 mM stock solution in 100% DMSO.\nThe final concentration in the assay is 70 μM.\nTest compounds are prepared as a 10×5% DMSO solution in distilled water. The final DMSO concentration in the reaction is 0.5%.\nThe experiment is performed in a 96-well microplate (Matrix Screenmates white), 50 ul volume, according to the following steps:\n1) Add 5 ul of DMSO/compound solution\n2) Add 40 ul of HDAC8 enzyme in assay buffer\n4) Start the reaction by adding 5 ul of the 1 mM Substrate Solution\n5) Incubate 1 h at 37° C. […]\n8) Measure the fluorescence at Ex.360 nM and Em.460 nM […]"}, "[5]": {"target": "HDAC4 (Homo sapiens, UniProt P56524)", "sequence (P56524 whole entry, species assumed, canonical isoform)": "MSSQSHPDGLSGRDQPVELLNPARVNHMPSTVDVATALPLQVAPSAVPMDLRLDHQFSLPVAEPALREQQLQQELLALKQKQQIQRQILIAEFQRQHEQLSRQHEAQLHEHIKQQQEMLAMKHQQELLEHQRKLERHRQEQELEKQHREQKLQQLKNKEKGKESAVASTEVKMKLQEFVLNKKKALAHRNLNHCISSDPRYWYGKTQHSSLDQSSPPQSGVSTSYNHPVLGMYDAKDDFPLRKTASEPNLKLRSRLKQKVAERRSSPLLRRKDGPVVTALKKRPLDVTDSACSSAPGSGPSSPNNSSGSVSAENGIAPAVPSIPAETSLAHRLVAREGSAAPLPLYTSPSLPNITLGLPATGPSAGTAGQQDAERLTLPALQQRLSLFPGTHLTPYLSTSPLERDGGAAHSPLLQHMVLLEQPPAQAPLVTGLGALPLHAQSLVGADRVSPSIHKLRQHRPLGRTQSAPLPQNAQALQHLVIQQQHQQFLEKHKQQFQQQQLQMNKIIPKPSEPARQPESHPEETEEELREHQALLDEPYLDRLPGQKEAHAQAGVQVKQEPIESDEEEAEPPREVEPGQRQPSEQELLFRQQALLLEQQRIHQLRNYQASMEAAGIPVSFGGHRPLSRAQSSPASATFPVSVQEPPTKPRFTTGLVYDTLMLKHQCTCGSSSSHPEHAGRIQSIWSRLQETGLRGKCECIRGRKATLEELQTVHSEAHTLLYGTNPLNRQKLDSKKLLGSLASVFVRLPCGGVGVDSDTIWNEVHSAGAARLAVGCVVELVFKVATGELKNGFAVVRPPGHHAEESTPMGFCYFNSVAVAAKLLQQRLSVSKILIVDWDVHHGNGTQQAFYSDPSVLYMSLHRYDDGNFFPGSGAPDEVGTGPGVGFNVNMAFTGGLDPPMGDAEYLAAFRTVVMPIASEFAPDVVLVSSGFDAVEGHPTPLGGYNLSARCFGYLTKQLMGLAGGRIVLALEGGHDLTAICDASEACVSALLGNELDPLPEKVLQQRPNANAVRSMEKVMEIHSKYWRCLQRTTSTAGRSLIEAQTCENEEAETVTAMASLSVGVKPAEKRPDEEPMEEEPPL", "experiment": "cell-free, isoform selective HDAC enzyme assay, HDAC4", "assay_type": "biochemical", "conditions": "HDAC Class IIa; read-out: IC50 Inhibition, HDAC4"}, "[6]": {"target": "T4, HDAC6 (Homo sapiens, UniProt Q9UBN7)", "T4 sequence (Q9UBN7 1-1215)": "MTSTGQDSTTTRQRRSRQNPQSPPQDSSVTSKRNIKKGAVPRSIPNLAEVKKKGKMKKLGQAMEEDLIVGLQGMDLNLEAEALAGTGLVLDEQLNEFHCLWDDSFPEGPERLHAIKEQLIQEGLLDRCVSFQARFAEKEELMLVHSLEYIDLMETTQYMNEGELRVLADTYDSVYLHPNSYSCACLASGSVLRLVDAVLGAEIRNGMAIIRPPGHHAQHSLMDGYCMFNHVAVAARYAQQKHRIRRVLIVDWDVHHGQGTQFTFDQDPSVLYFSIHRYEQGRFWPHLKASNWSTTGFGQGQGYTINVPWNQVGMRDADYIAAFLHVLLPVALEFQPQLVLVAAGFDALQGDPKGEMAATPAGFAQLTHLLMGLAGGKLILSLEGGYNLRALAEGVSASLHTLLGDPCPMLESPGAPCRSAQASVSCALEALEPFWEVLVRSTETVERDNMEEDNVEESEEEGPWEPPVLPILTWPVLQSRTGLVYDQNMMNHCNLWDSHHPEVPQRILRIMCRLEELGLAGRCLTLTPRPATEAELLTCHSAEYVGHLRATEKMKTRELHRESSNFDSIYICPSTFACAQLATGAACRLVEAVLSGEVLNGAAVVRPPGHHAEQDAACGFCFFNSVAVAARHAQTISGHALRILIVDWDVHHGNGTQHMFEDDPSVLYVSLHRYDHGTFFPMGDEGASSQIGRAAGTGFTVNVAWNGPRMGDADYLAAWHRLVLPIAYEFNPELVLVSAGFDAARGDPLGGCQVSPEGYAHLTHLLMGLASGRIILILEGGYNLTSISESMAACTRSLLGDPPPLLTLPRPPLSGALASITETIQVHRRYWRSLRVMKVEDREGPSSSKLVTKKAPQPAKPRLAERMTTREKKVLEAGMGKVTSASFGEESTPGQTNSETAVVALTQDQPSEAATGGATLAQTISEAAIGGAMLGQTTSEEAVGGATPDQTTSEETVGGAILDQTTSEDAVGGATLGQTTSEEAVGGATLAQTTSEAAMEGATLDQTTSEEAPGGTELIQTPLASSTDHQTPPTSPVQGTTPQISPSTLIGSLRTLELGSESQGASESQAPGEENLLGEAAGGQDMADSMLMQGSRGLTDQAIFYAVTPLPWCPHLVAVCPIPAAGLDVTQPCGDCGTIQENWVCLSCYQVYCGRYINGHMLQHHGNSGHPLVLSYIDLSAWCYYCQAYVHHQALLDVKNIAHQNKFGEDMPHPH", "experiment": "cell-free, isoform selective HDAC enzyme assay, HDAC6", "assay_type": "biochemical"}, "[7]": {"target": "T5, SIRT1 (Homo sapiens, UniProt Q96EB6)", "T5 sequence (Q96EB6 1-747)": "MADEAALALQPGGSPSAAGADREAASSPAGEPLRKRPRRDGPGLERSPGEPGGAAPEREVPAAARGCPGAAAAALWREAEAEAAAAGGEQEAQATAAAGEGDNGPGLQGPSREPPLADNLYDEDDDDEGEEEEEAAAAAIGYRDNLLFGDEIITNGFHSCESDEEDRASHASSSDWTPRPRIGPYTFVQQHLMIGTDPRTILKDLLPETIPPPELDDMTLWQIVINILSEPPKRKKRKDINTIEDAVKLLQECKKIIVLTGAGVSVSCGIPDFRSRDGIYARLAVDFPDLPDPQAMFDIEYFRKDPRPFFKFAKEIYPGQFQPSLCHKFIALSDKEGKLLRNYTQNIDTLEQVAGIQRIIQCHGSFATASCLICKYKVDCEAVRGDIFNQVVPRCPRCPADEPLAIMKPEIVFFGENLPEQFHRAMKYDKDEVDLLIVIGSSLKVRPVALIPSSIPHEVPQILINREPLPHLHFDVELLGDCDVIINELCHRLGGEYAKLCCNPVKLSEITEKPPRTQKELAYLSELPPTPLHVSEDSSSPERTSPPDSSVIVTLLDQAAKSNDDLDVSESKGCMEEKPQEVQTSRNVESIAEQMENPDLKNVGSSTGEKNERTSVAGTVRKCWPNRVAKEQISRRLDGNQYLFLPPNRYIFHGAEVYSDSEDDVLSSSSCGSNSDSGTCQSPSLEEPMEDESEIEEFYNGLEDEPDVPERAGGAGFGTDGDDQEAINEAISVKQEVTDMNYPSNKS", "experiment": "cell-free, isoform selective HDAC enzyme assay, SIRT1", "assay_type": "biochemical", "conditions": "HDAC Class III; read-out: IC50 Inhibition, SIRT1", "description": "The following pharmaceutically active compounds, all of which are taught in the prior art, were assessed for the inhibition of various HDAC subtypes the preceding cell-free, isoform selective HDAC enzyme assays: […]"}},
  "note": "pIC50: −log10 of the molar value. Where two headings read alike, the source gives them in different places.",
  "data": [
    {"smiles": "O=C(CCCCCCC(=O)Nc1ccccc1)NO", "note": "[SAHA, suberoylanilide hydroxamic acid]", "values": [
      {"measurement": "accumulation of acetylated histones in the brain", "setting": "[1]", "result": "cause accumulation of acetylated histones in the brain"},
      {"measurement": "crossing of the blood-brain barrier", "setting": "[1]", "result": "cross the blood-brain barrier"}
    ]},
    {"smiles": "CCCCCC[C@@H](CCC)C(=O)O", "note": "[Arundic acid, (2R)-2-propyloctanoic acid]", "values": [
      {"measurement": "pIC50", "setting": "[2]", "result": 5.00},
      {"measurement": "pIC50", "setting": "[3]", "result": 4.44},
      {"measurement": "potency at HDAC 8 relative to HDAC1 and HDAC3", "setting": "[4]; HDAC 8 potency similar to HDAC1 and HDAC3", "result": "≤ 5", "unit": "fold"},
      {"measurement": "pIC50", "setting": "[4]; HDAC Class I, read-out: IC50 Inhibition, HDAC8", "result": 4.51},
      {"measurement": "pIC50", "setting": "[5]", "result": "< 4.30"},
      {"measurement": "pIC50", "setting": "[6]; HDAC Class IIb, read-out: IC50 Inhibition, HDAC6", "result": "< 4.30"},
      {"measurement": "pIC50", "setting": "[7]", "result": "< 4.30"}
    ]},
    {"smiles": "CCCC(CCC)C(=O)O", "note": "[Valproic acid, 2-propylpentanoic acid]", "values": [
      {"measurement": "pIC50", "setting": "[5]", "result": "< 4.60"},
      {"measurement": "pIC50", "setting": "[6]", "result": "< 2.30"}
    ]}
  ]
}
